What is called IC50 is the concentration needed to halve the response being measured.

Data set [1] deals with Coxsackievirus. As to the kind of experiment: Antiviral activity against CVB3 infected in African green monkey Vero cells by MTT assay. The format is functional, organism-based, B3. (In general: Tetrazolium dyes change colour on reduction, which living cells bring about.)
Data set [2] can be described thus: (§1) Cytotoxicity in African green monkey Vero cells assessed as reduction in cell viability by MTT assay. It counts as cell-based. As to conditions: chlorocebus sabaeus, Vero cells; read-out: TC50 (the source's name).
Data set [3] relates to Coxsackievirus. As to the kind of experiment: Antiviral activity against CVB3 infected in African green monkey Vero cells assessed as reduction in degree of lesion incubated for 5 days by microscopic method. The format is functional, organism-based. As to conditions: B3.
Another data set has as its system Vero. The description is as §1. It counts as cell-based. To be noted: chlorocebus sabaeus, vero; read-out: TC50 (the source's name).
Data set [4] in a line: Therapeutic Index, ratio of TC50 for African green monkey Vero cells to IC50 for CVB3 infected in African green monkey Vero cells. It counts as toxicity.

As for `COC(=O)[C@H](CCC(=O)O)Nc1ccn([C@@H]2O[C@@](CO)(N=[N+]=[N-])[C@@H](O)[C@@H]2F)c(=O)n1`, the midpoint of inhibition in the data set on Coxsackievirus [1] (Coxsackievirus, B3, Vero), the IC50, lay at 870 µM. In data set [2], the CC50 was found to be 9.3 µM. For the same compound, the Activity entry in the data set on Coxsackievirus [3] is “Dose-dependent effect”.
In the data set with Coxsackievirus [1] (Coxsackievirus, B3, Vero), `[N-]=[N+]=N[C@]1(CO)O[C@@H](n2ccc(N[C@@H](CCC(N)=O)C(N)=O)nc2=O)[C@@H](F)[C@@H]1O` displayed a concentration for half-maximal inhibition (IC50) of over 1000 µM. Besides, in data set [2], the CC50 is 160 µM.
`CNC(=O)CC[C@H](Nc1ccn([C@@H]2O[C@@](CO)(N=[N+]=[N-])[C@@H](O)[C@@H]2F)c(=O)n1)C(=O)NC` had an IC50 with Coxsackievirus [1] (Coxsackievirus, B3, Vero) of over 1000 µM. For the same compound, the CC50 in data set [2] amounted to 126 µM.
As to `[N-]=[N+]=N[C@]1(CO)O[C@@H](n2ccc(N[C@@H](CCC(=O)O)C(=O)O)nc2=O)[C@@H](F)[C@@H]1O`, the IC50 in the data set with Coxsackievirus [1] (Coxsackievirus, B3, Vero) came to 488 µM. Further, the CC50 with Vero stood at 30.7 µM.
In the data set with Coxsackievirus [1] (Coxsackievirus, B3, Vero), `COC(=O)CC[C@H](Nc1ccn([C@@H]2O[C@@](CO)(N=[N+]=[N-])[C@@H](O)[C@@H]2F)c(=O)n1)C(=O)OC` registered an IC50 of 1000 µM. Also, in data set [2], the CC50 was determined as 257 µM.
As for `COC(=O)CC[C@H](Nc1ccn([C@@H]2O[C@@](CO)(N=[N+]=[N-])[C@@H](O)[C@@H]2F)c(=O)n1)C(=O)O`, the IC50 in the data set with Coxsackievirus [1] (Coxsackievirus, B3, Vero) came out at 648 µM. In data set [2], the CC50 worked out at 21.5 µM.
In the case of `[K+].[K+].[N-]=[N+]=N[C@]1(CO)O[C@@H](n2ccc(N[C@@H](CCC(=O)[O-])C(=O)[O-])nc2=O)[C@@H](F)[C@@H]1O`, in the data set with Coxsackievirus [1] (vero), the IC50 was found to be 282 µM. Moreover, the CC50 in the data set with Vero turned out to be 13.5 µM. Further, the TI in data set [4] (vero) is given as 20.8.
For `CCNC(=O)CC[C@H](Nc1ccn([C@@H]2O[C@@](CO)(N=[N+]=[N-])[C@@H](O)[C@@H]2F)c(=O)n1)C(=O)NCC`, the IC50 with Coxsackievirus [1] (Coxsackievirus, B3, Vero) was over 1000 µM. The CC50 in data set [2] turned out to be 150 µM.
`NC(=O)c1ncn([C@@H]2O[C@H](CO)[C@@H](O)[C@H]2O)n1` [RIBAVIRIN] yielded an IC50 in the data set on Coxsackievirus [1] (Coxsackievirus, B3, Vero) of 885 µM. In addition, the CC50 in data set [2] was determined as 31.2 µM. For the same compound, in data set [4] (Vero cells, read-out: TI), the selectivity ratio is 28.3.

These data come from ChEMBL document CHEMBL4342433, “Synthesis and anti-CVB3 activity of 4-amino acid derivative substituted pyrimidine nucleoside analogues” (Bioorg Med Chem Lett, 2020).
